The values that follow come from patent US7173061B2, “Compounds for imaging alzheimer's disease” (GE Healthcare Limited, priority 2001, dated 2007).

No end group written: not given here.

The target in the assay is T1, amyloid 1-40 fibrils (fibrillar BAP 1-40) (Homo sapiens, UniProt P05067).
T1 construct: used to immobilise fibrillar Beta-Amyloid Protein (BAP 1-40); purchased Biosource 03-138 (BAP 1-40); 03-243 (biotinylated BAP 1-40)
T1 sequence (P05067 672-711): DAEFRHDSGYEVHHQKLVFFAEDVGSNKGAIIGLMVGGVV
Description: Determination of amyloid binding (scintillation proximity assay beads coated with fibrillar BAP 1-40). The note with it: SPA-BAP beads, 180 minutes at room temperature, equimolar amounts, SPA-NSB counts subtracted; 125I-BAP binding taken as 100%. The procedure: The binding of Compounds was determined compared to the ability of ^125I-beta amyloid protein 1-40 (^125I-BAP 1-40, Amersham Biosciences IM294)) to bind to amyloid 1-40 fibrils. Amyloid binding was essentially performed as follows.
Three fresh buffer stocks were prepared for experiments: Buffer 1, 50 mM HEPES/0.1% Bovine Serum Albumin (BSA) pH 7.5; Buffer 2, 50 mM HEPES/0.1% BSA/400 μM ZnCl2 pH 7.5; Buffer 3, 50 mM HEPES/0.1% BSA/100 μM ZnCl2 pH 7.5.
Streptavidin coated scintillation proximity assay beads (SA-SPA beads, Amersham Biosciences) were used to immobilise fibrillar Beta-Amyloid Protein (BAP 1-40). Amyloid coated beads (SPA-BAP) were prepared by incubating 250 μl SA-SPA beads (100 mg/ml) with 250 μl Buffer 2, 425 μl Buffer 1, 50 μl biotinylated BAP 1-40 (0.5 mg/ml, Biosource 03–243), 25 μl BAP 1-40 (10 mg/ml, Biosource 03–138). Non-specific binding SPA beads (SPA-NSB) were prepared to assess the binding of compounds to SPA beads with no associated BAP 1-40 fibrils in the following incubation: 250 μl SA-SPA beads (100 mg/ml) with 250 μl Buffer 2, 500 μl Buffer 1.
SPA-BAP and SPA-NSB incubations were left for 24 hours at room temperature and then spun 1.5 ml tubes (eppendorf, Merk, 306/0421/12) for 2 minutes at 1000×g. The supernatants were removed and the beads were washed twice by resuspending them in 1 ml Buffer 3 followed by centrifugation for 2 minutes at 1000×g. Finally, washed SPA-BAP and SPA-NSB beads were resuspended in 1 ml Buffer 3.
Amyloid binding of ^125I-BAP 1-40 and test compounds was performed in triplicate in 0.5 ml tubes (eppendorf, Merk, 306/0421/02) by adding 50 μl SPA-BAP beads to 25 μl Buffer 2 and 25 μl labelled compound (^125I-BAP 1-40 or test compound). Tubes were then incubated for 180 minutes at room temperature with shaking, followed by centrifugation for 2 minutes at 1000×g. The supematants were removed and SPA-BAP pellet washed twice with 300 μl Buffer 3 containing 1% TWEEN-20 (Sigma, P7949). Non-specific binding for labelled compounds to the SPA beads was determined using incubations as described above but by substituting SPA-BAP beads with SPA-NSB beads. Radioactivity associated with the washed SPA bead pellets was then determined.
The affinity of labelled compounds for fibrillar BAP 1-40 was estimated by subtracting SPA-NSB associated counts from SPA-BAP associated counts. The binding of labelled compounds was then compared to ^125I-BAP binding, which was taken as being 100%.
In these experiments, ^125I-BAP 1-40 or test compounds were added in equimolar amounts.
For orientation: In a scintillation proximity assay essentially only radioactivity close to the scintillant gives light.
As for `CCN(CC)CCCOc1ccc(C(=O)c2c(-c3ccc(OCC(=O)NCCN(CCNC(C)(C)/C(C)=N/O)CCNC(C)(C)/C(C)=N/O)cc3)oc3ccc(Cl)cc23)cc1` [Example 2(vii) Pn216 conjugated], the “Amyloid binding (% of 125I-BAP 1-40)” value came out at 15%.

With “^125I-KKLVFFA (BAP 15-21): 125I-labelled BAP 15–21 sequence (Amersham Biosciences), responsible for the binding of BAP to itself (also: 125I label) [reference compound]”, the “Amyloid binding (% of 125I-BAP 1-40)” value came to 21%.

Regarding “^125I-BAP 1-40: 125I-beta amyloid protein 1-40, Amersham Biosciences IM294; reference whose binding to amyloid fibrils is taken as 100% [reference compound]”, the “Amyloid binding (% of 125I-BAP 1-40)” value worked out at 100%.

`CCN(CC)CCOc1ccc(C(=O)c2c(-c3ccc(OCC(=O)NCCN(CCNC(C)(C)/C(C)=N\O)CCNC(C)(C)/C(C)=N\O)cc3)oc3ccc(Cl)cc23)cc1` [Example 1(vii) Pn216 conjugated]: the “Amyloid binding (% of 125I-BAP 1-40)” value stood at 23%.

Regarding `C/C(=N\O)C(C)(C)NCCN(CCNC(=O)COc1ccc(-c2cc3cc(Cl)ccc3o2)cc1)CCNC(C)(C)/C(C)=N/O` [Example 8(iii) Pn216 conjugated], the “Amyloid binding (% of 125I-BAP 1-40)” value was 40%.
